{"source": "patent US8772288B2", "about": "“Substituted spiro[cycloalkyl-1,3′-indo]-2′(1′H)-one derivatives and their use as P38 mitogen-activated kinase inhibitors” (Almirall, S.A., priority 2008, dated 2014)"}
{"target": "human p38alfa (SAPKa) enzyme (Homo sapiens (Human), UniProt Q16539)", "sequence (Q16539 whole entry)": "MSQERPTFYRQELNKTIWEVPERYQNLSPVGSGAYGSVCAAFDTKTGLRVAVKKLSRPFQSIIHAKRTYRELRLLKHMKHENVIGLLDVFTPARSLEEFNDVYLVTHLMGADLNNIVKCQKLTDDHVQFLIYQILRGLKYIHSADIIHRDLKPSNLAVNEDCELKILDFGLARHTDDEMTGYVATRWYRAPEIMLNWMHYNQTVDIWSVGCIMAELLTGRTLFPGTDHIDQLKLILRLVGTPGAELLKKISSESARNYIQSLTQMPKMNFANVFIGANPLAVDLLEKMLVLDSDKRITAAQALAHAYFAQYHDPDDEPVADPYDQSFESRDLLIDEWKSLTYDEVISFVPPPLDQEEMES", "test": "Inhibition Assay: p38 enzymatic activity (ATF2 phosphorylation, FRET)", "assay_type": "biochemical", "conditions": "read-out: p38α IC50", "units": {"IC50": "nM"}}
{"smiles": "Cc1ccc(C(N)=O)cc1-c1ccc2c(c1)NC(=O)C2(C)C", "note": "[Example 7, 3-(3,3-dimethyl-2-oxoindolin-6-yl)-4-methylbenzamide]", "IC50": 80}
{"smiles": "Cc1ccc(C(=O)NCC2CC2)cc1-c1ccc2c(c1)NC(=O)C2(C)C", "note": "[Example 18, N-(Cyclopropylmethyl)-3-(3,3-dimethyl-2-oxoindolin-6-yl)-4-methylbenzamide]", "IC50": 27}
{"smiles": "Cc1ccc(C(=O)Nc2ccon2)cc1-c1ccc2c(c1)NC(=O)C2(C)C", "note": "[Example 19, 3-(3,3-Dimethyl-2-oxo-2,3-dihydro-1H-indol-6-yl)-N-isoxazol-3-yl-4-methylbenzamide]", "IC50": 0.04}
{"smiles": "Cc1ccc(C(=O)NC2CC2)cc1-c1ccc2c(c1)NC(=O)C21CCOCC1", "note": "[Example 22, N-Cyclopropyl-4-methyl-3-(2-oxo-2′,3′,5′,6′-tetrahydrospiro[indoline-3,4′-pyran]-6-yl)benzamide]", "IC50": 1.4}
{"smiles": "Cc1ccc(C(=O)Nc2ccon2)cc1-c1ccc2c(c1)NC(=O)C21CCOCC1", "note": "[Example 23, N-Isoxazol-3-yl-4-methyl-3-(2-oxo-1,2,2′,3′,5′,6′-hexahydrospiro[indole-3,4′-pyran]-6-yl)benzamide]", "IC50": 0.06}
{"smiles": "Cc1ccc(C(=O)NC2CC2)cc1-c1ccc2c(c1)NC(=O)C21CCS(=O)(=O)CC1", "note": "[Example 27, N-Cyclopropyl-3-(1′,1′-dioxido-2-oxo-1,2,2′,3′,5′,6′-hexahydrospiro[indole-3,4′-thiopyran]-6-yl)-4-methylbenzamide]", "IC50": 6.7}
{"smiles": "Cc1c(F)cc(C(=O)NC2CC2)cc1-c1ccc2c(c1)NC(=O)C21CCN(S(C)(=O)=O)CC1", "note": "[Example 31, N-cyclopropyl-3-fluoro-4-methyl-5-(1′-(methylsulfonyl)-2-oxospiro[indoline-3,4′-piperidine]-6-yl)benzamide]", "IC50": 1}
{"smiles": "Cc1ccc(C(=O)NC2CC2)cc1-c1ccc2c(c1)NC(=O)C21CCC(F)(F)CC1", "note": "[Example 32, N-Cyclopropyl-3-(4,4-difluoro-2′-oxospiro[cyclohexane-1,3′-indoline]-6′-yl)-4-methylbenzamide]", "IC50": 1.8}
{"smiles": "Cc1ccc(C(=O)NC2CC2)cc1-c1ccc2c(c1)NC(=O)C21CCC(O)CC1", "note": "(stereo not drawn) [Example 34, N-cyclopropyl-3-(4-hydroxy-2′-oxospiro[cyclohexane-1,3′-indoline]-6′-yl)-4-methylbenzamide]", "IC50": 1.4}
{"smiles": "Cc1ccc(C(=O)NC2CC2)cc1-c1ccc2c(c1)NC(=O)C21CCC(C)(O)CC1", "note": "(stereo not drawn) [Example 37, N-cyclopropyl-3-(4-hydroxy-4-methyl-2′-oxospiro[cyclohexane-1,3′-indoline]-6′-yl)-4-methylbenzamide]", "IC50": 0.8}
{"smiles": "Cc1ccc(C(=O)NC2CC2)cc1-c1ccc2c(c1)NC(=O)C21CCC(N2CCOCC2)CC1", "note": "(stereo not drawn) [Example 40, N-cyclopropyl-4-methyl-3-(4-morpholino-2′-oxospiro[cyclohexane-1,3′-indoline]-6′-yl)benzamide]", "IC50": 1}
{"smiles": "Cc1ccc(C(=O)NC2CC2)cc1-c1ccc2c(n1)NC(=O)C21CCCC1", "note": "[Example 43, N-Cyclopropyl-4-methyl-3-(2′-oxo-1′,2′-dihydrospiro[cyclopentane-1,3′-pyrrolo[2,3-b]pyridine]-6′-yl)benzamide]", "IC50": 5.6}
{"smiles": "Cc1ccc(C(=O)NC2CC2)cc1-c1cnc2c(c1)NC(=O)C2(C)C", "note": "[Example 45, N-Cyclopropyl-3-(3,3-dimethyl-2-oxo-2,3-dihydro-1H-pyrrolo[3,2-b]pyridin-6-yl)-4-methylbenzamide]", "IC50": 62}
{"smiles": "Cc1ccc(C(=O)NC2CC2)cc1-c1cnc2c(c1)NC(=O)C21CCOCC1", "note": "[Example 47, N-Cyclopropyl-4-methyl-3-(2′-oxo-1′,2,2′,3,5,6-hexahydrospiro[pyran-4,3′-pyrrolo-[3,2-b]pyridin]-6′-yl)benzamide]", "IC50": 13}
{"smiles": "Cc1ccc(C(=O)NC2CC2)cc1-c1cc2c(cn1)C1(CCCC1)C(=O)N2", "note": "[Example 51, N-Cyclopropyl-4-methyl-3-(2′-oxo-1′,2′-dihydrospiro[cyclopentane-1,3′-pyrrolo[3,2-c]pyridin]-6′-yl)benzamide]", "IC50": 0.8}
{"smiles": "Cc1ccc(C(=O)NC2CC2)cc1-c1ncc2c(n1)NC(=O)C21CCCC1", "note": "[Example 52, N-Cyclopropyl-4-methyl-3-(6′-oxo-6′,7′-dihydrospiro[cyclopentane-1,5′-pyrrolo[2,3-c]pyrimidin]-2′-yl)benzamide]", "IC50": 72}
{"smiles": "Cc1nnc(-c2ccc(C)c(-c3ccc4c(c3)NC(=O)C43CCCC3)c2)[nH]1", "note": "[Example 53, 6′-(2-Methyl-5-(5-methyl-4H-1,2,4-triazol-3-yl)phenyl)spiro[cyclopentane-1,3′-indolin]-2′-one]", "IC50": 7.5}
{"smiles": "Cc1nnc(-c2ccc(C)c(-c3ccc4c(c3)NC(=O)C43CCC3)c2)[nH]1", "note": "[Example 54, 6′-[2-Methyl-5-(5-methyl-4H-1,2,4-triazol-3-yl)phenyl]spiro[cyclobutane-1,3′-indol]-2′(1′H)-one]", "IC50": 18}
{"smiles": "Cc1ccc(-c2ncn[nH]2)cc1-c1ccc2c(c1)NC(=O)C21CCCC1", "note": "[Example 55, 6′-(2-Methyl-5-(4H-1,2,4-triazol-3-yl)phenyl)spiro[cyclopentane-1,3′-indolin]-2′-one]", "IC50": 9}
{"smiles": "Cc1nnc(-c2ccc(C)c(-c3ccc4c(c3)NC(=O)C43CCOCC3)c2)[nH]1", "note": "[Example 59, 6-(2-Methyl-5-(5-methyl-4H-1,2,4-triazol-3-yl)phenyl)-2′,3′,5′,6′-tetrahydrospiro[indoline-3,4′-pyran]-2-one]", "IC50": 10}
{"smiles": "Cc1nnc(-c2cc(F)c(C)c(-c3ccc4c(c3)NC(=O)C43CCOCC3)c2)[nH]1", "note": "[Example 61, 6-[3-Fluoro-2-methyl-5-(5-methyl-4H-1,2,4-triazol-3-yl)phenyl]-2′,3′,5′,6′-tetrahydro-spiro[indole-3,4′-pyran]-2(1H)-one]", "IC50": 8}
{"smiles": "Cc1nnc(-c2ccc(C)c(-c3ccc4c(c3)NC(=O)C43CCC(F)(F)CC3)c2)[nH]1", "note": "[Example 63, 4,4-Difluoro-6′-(2-methyl-5-(5-methyl-4H-1,2,4-triazol-3-yl)phenyl)spiro[cyclohexane-1,3′-indolin]-2′-one]", "IC50": 2}
{"smiles": "Cc1nnc(-c2cc(F)c(C)c(-c3ccc4c(c3)NC(=O)C43CCC(C)(O)CC3)c2)[nH]1", "note": "(stereo not drawn) [Example 65, 6′-(3-fluoro-2-methyl-5-(5-methyl-4H-1,2,4-triazol-3-yl)phenyl)-4-hydroxy-4-methylspiro[cyclohexane-1,3′-indolin]-2′-one]", "IC50": 8}
{"smiles": "Cc1nnc(-c2ccc(C)c(-c3ccc4c(c3)NC(=O)C43CCN(S(C)(=O)=O)CC3)c2)[nH]1", "note": "[Example 67, 6-(2-methyl-5-(5-methyl-4H-1,2,4-triazol-3-yl)phenyl)-1′-(methylsulfonyl)spiro[indoline-3,4′-piperidin]-2-one]", "IC50": 4.7}
{"smiles": "Cc1nnc(-c2ccc(C)c(-c3ccc4c(c3)NC(=O)C43CCCC3)c2)o1", "note": "[Example 70, 6′-(2-Methyl-5-(5-methyl-1,3,4-oxadiazol-2-yl)phenyl)spiro[cyclopentane-1,3′-indolin]-2′-one]", "IC50": 32}
{"smiles": "Cc1nnc(-c2ccc(C)c(-c3ccc4c(c3)NC(=O)C43CCC(F)(F)CC3)c2)o1", "note": "[Example 72, 4,4-Difluoro-6′-(2-methyl-5-(5-methyl-1,3,4-oxadiazol-2-yl)phenyl)spiro-[cyclohexane-1,3′-indolin]-2′-one]", "IC50": 5.6}
{"smiles": "Cc1nnc(-c2ccc(C)c(-c3ccc4c(c3)NC(=O)C43CCC(O)CC3)c2)o1", "note": "(stereo not drawn) [Example 73, 4-hydroxy-6′-(2-methyl-5-(5-methyl-1,3,4-oxadiazol-2-yl)phenyl)spiro[cyclohexane-1,3′-indolin]-2′-one]", "IC50": 5.7}
